Experimental data published in paper PMC8759731, “Design, synthesis, and evaluation of novel coumarin-dithiocarbamate derivatives (IDs) as anti-colorectal cancer agents” (Journal of Enzyme Inhibition and Medicinal Chemistry, 2021).

Key:
SW620 cells [1] = assay: Cell cycle analysis (PI, flow cytometry), SW620 cells; type: cell-based, human; conditions: SW620, 16 μM, 24 h
Description: Cells were seeded in 6-well plates (40,000 cells per well) and cultured in RPMI-1640 medium containing 10% FBS overnight. Then the cells were exposed to DMSO or compound ID-11 (8 or 16 μM) for 24 h. After that, cells were collected, washed with cold PBS for twice and fixed in 75% ethanol overnight at 4 °C. Subsequently, ethanol was removed and suspended in PBS for twice, and then RNase A and propidium iodide (PI) (Multi Sciences, Hangzhou, China) was added and keep in the darkness for 30 min. Finally, the percentages of cells in different cell cycle phases were measured using a FACS Calibur flow cytometer (Bectone Dickinson, San Jose, CA, USA).

SW480 cells [2] = assay: Annexin V-FITC/PI apoptosis analysis, SW480 cells; type: cell-based, human; conditions: SW480, 16 μM, 24 h
Description: Cell apoptosis was determined using Annexin V-FITC/PI Apoptosis Detection Kit (BD Biosciences, New Jersey, USA) in according with manufacturer's instruction. Briefly, cells were cultured in 6-well plates (40 000 cells per well) till reaching logarithmic growth phase and then treatment with DMSO or compound ID-11 (8 or 16 μM) for 24 h. Afterwards, the cells were harvested, washed with PBS for twice and stained with 100 μL of the mixture of Annexin V/FITC and PI in binding buffer (v/v, 5: 5: 100) in the darkness for 30 min. Another 200 μL binding buffer was added before detection. The apoptotic cells were then analysed by FACS Calibur flow cytometry immediately.

SW480 cells [3] = assay: MTS cell viability assay, SW480 cells; type: cell-based; conditions: Homo sapiens, 72 h
From the text: (§1) Human colorectal cancer cell lines including RKO, SW620 and SW480 were purchased from Chinese Academy of Sciences, a typical cell library culture preservation committee (Shanghai, China). Normal human colon epithelial cell line NCM460 was purchased from ATCC (Washington, DC, USA). RPMI-1640 medium (12633020), foetal bovine serum (FBS, 26170043), penicillin-streptomycin (10378016) and phosphate buffered saline (PBS, 70011044) were purchased from Gibco (Eggenstein, Germany). 5-Fluorouracil (5-FU, E0201010050, purity ≥98%) was purchased from Energy Chemical (Shanghai, China). Dimethyl sulfoxide (DMSO, 41639) was obtained from Sigma-Aldrich (St. Louis, MO). 3–(4,5-dimethylthiazol-2-yl)-5–(3-carboxymethoxyphenyl)-2–(4-sulfophenyl)-2H-tetrazolium (MTS, G1111) was purchased from Promega (Madison, WI, USA). All cell lines were cultured in RPMI-1640 medium supplemented with 10% FBS, penicillin (100 units/mL) and streptomycin ([…]) at 37 °C in a humidified atmosphere containing 5% CO2.
(§2) Cell viability was measured via MTS assay. RKO, SW620, SW480 and NCM460 cells were seeded in 96-well plates at a density of 5000 cells per well for 24 h. After treatment with the test compounds at indicated concentration for another 48 h or 72 h at 37 °C, MTS solution was added to each well and incubated for another 30 min at 37 °C. Then, the absorbance at 490 nm was measured by a BioTek Synergy H4 microplate Reader (Vermont, USA). The IC50 values were calculated with Graphpad 7.0 software packages.

[4] = MTS cell viability assay, NCM460 normal colon epithelial cells; type: cell-based, human; conditions: human, NCM460 normal colon epithelial cells, 10 μM
From the text: as §1, §2

NCM460 cells = assay: as above; type: cell-based, human; conditions: Homo sapiens, 48 h
From the text: as §1, §2

SW480 cells [5] = assay: Quantitative RT-PCR, SW480 cells; type: cell-based, human; conditions: SW480, 0 to 24 μM, 24 h, qRT-PCR
Description: (§3) Cells (50,000 cells per well) incubated in 6-well plates were treated with compound ID-11 for 24 h. After that, the total RNA was extracted using Total RNA Extraction Reagent (Invitrogen, USA) according to the manufacturer’s instructions and quantified with NanoDrop 2000 (Nanodrop, USA). Then the cDNA was synthesized from total RNA using High-Capacity cDNA Reverse Transcription Kit (Applied Biosystems, USA). The SYBR Green Master reagents (Applied Biosystems, USA) was used to determine the relative expression of mRNA level by quantitative real-time PCR (qRT-PCR). The primer sequences are shown below.

SW620 cells [6] = assay: Quantitative RT-PCR, SW620 cells; type: cell-based, human; conditions: SW620, 0 to 24 μM, 24 h, qRT-PCR
Description: as §3

BRD4 (BD2) = molecular target: T1, BRD4 (BD2) (Homo sapiens, UniProt O60885); assay: HTRF assay BRD4 (BD2); type: binding; conditions: read-out: Inhibitory rate at 10 μM, BRD4 (BD2)
T1 construct: purchased Reaction Biology Corp. RD-11-158
Description: In brief, compounds were serially diluted in Echo plate according to the plate map and DMSO’s final fraction is 0.1%. Then, transferring compounds and DMSO to 384-well assay plate by Echo. After that, 2× Protein and Peptide Mix was added to the assay plate and 2× Detection Mix was then added to assay plate and shook for 30 s. After incubating the plate at room temperature for 1.5 h, the HTRF signals (Excitation wavelength at 340 nm, Emission wavelength at 615 & 665 nm) was read on EnVision (PerkinElmer, UK). (+)-JQ1 (BPS Bioscience, Cat. No. 27402) was used as a positive control. BRD4-1 (RD-11–157) and BRD4-2 (RD-11–158) were purchased from Reaction Biology Corp. (PENN, USA). For Curve fitting, the inhibition values was calculated in Excel using Equation (1): Inhibition %=(Max-Signal)/(Max-Min)*100, and the IC50 values was calculated in XL-Fit using Equation (2): Y = Bottom + (Top-Bottom)/(1+(IC50/X)[…]), Y is %inhibition and X is compound concentration.

## O=c1ccc2cc(CSC(=S)n3ccnc3)ccc2o1 [ID-11, (2-Oxo-2H-chromen-6-yl)methyl 1H-imidazole-1-carbodithioate]
SW620 cells [1]
  cell cycle distribution G2 (G2/M phase): 33.13%
SW480 cells [2]
  total apoptosis rate: 23.23%
SW480 cells [3]; 10 μM
  viability at 10 µM: 20.2%
SW480 cells [3]
  IC50: 3.57 µM
[4]
  viability at 48 h, 10 µM: 80.8%
NCM460 cells
  IC50: 23.9 µM
other
  melting point: 139.1 to 140 °C
SW480 cells [5]
  mRNA relative expression level of Bcl-2: also decreased in a concentration dependent way
  mRNA relative expression level of c-Myc: also decreased in a concentration dependent way
SW620 cells [6]
  mRNA relative expression level of Bcl-2: also decreased in a concentration dependent way
  mRNA relative expression level of c-Myc: also decreased in a concentration dependent way
BRD4 (BD2)
  inhibition at 10 µM: 35.7%
